The target in one assay is T1, AfPGMC353∗ (Aspergillus fumigatus, UniProt Q4WY53, C131S/C242S/C364S).
T1 construct: Full length AfPGM; 6His-GST (N, cleaved yes); made in house; host or cells: E. coli BL21 (DE3) pLysS
The assay can be described thus: G6PDH coupled assay for PGM, AfPGMC353∗ variant (C353 the sole cysteine). It counts as biochemical. As to conditions: no preincubation; for IC50: IC50 AfPGMC353, AfPGMC353∗ (all other cysteines mutated to serine) 5 nM. How it is done:
(§1) The reaction mixture contained MOPS–NaOH (pH 7.4; 50 mM), MgSO4 (1.5 mM), NADP^+ (1 mM), G6PDH (0.01 U) from L. mesenteroides, Glc-1P (500 μM), Glc-1,6-2P (50 μM), and enzyme (5 nM). The reaction was carried out at 25 °C for 6 min in a total volume of 100 μl. Formation of NADPH was detected in real-time (every 1.5 min), measuring fluorescence signal (excitation at 360 nm; emission at 460 nm). To measure the inhibitory activity, compounds with different concentrations (3% (v/v) DMSO) were added to the reaction system. IC50 values were calculated using the product (NADPH) concentration at 6 min with 500 μM Glc-1P.

A further assay addresses T2, AfPGM (Aspergillus fumigatus, UniProt Q4WY53).
T2 construct: Full length AfPGM; 6His-GST (N, cleaved yes); made in house; host or cells: E. coli BL21 (DE3) pLysS
The assay is described as follows: biochemical. As to conditions: for IC50 / IC50 AfPGM: WT AfPGM 5 nM, no preincubation, 500 μM Glc-1P. The method, then:
as §1
(§2) Figure S11: Representative enzyme activity assays for PGMs. Error bars represent standard deviation of three determinations. Panel A and B show the time course of PGMs and PGM mutants in which sugar recognition glutamates are mutated to glutamine. […] Values in parentheses indicate the time at which DTT (1 mM) was added.

For the next assay, the target named is T3, HsPGM (Homo sapiens, UniProt P36871).
T3 construct: Full length HsPGM; 6His-GST (N, cleaved yes); made in house; host or cells: E. coli BL21 (DE3) pLysS (same protocol as AfPGM)
T3 sequence (P36871 1-562): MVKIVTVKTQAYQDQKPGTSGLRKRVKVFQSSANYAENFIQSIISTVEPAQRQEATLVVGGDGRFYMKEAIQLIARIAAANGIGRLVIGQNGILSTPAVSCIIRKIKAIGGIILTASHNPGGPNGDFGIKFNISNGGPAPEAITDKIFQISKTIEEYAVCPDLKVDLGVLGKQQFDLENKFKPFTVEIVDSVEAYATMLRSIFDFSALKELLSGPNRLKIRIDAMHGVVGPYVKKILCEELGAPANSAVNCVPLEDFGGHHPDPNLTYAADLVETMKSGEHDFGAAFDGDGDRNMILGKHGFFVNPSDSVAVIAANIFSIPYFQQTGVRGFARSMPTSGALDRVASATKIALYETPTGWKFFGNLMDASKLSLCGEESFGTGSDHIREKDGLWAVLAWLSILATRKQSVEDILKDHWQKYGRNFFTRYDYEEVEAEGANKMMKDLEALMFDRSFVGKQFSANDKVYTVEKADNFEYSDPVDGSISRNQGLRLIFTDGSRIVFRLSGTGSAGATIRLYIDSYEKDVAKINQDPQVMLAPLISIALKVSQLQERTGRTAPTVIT
The assay can be described thus: G6PDH coupled assay for PGM, HsPGM. It is filed as biochemical. How it is done: as §1, §2

[1] abbreviates: HsPGM 5 nM, no preincubation, > values: highest concentration at which the compound can solubilize, read-out: IC50 HsPGM.

Each structure is given as a SMILES string. Several values for one entry are separate records, joined by “and”; a condition that tells them apart may be missing. Equal entries are not always repeated. Where two headings read alike, the source gives them in different places.

T2 sequence (Q4WY53 whole entry): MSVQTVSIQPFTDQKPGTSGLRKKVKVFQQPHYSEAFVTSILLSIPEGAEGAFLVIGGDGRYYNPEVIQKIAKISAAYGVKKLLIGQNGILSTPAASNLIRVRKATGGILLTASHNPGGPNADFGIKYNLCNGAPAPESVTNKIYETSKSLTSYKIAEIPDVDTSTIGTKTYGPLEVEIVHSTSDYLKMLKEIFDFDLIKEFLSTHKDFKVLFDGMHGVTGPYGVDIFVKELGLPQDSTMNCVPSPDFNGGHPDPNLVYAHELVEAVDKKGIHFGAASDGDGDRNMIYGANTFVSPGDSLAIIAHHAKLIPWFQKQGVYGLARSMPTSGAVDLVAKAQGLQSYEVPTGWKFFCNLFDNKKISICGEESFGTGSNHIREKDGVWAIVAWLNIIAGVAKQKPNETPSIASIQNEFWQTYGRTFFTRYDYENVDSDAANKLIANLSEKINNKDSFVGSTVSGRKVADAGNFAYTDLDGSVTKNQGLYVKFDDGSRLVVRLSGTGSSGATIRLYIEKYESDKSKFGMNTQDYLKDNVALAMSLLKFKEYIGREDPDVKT
T1 sequence (Q4WY53 whole entry C131S/C242S/C364S): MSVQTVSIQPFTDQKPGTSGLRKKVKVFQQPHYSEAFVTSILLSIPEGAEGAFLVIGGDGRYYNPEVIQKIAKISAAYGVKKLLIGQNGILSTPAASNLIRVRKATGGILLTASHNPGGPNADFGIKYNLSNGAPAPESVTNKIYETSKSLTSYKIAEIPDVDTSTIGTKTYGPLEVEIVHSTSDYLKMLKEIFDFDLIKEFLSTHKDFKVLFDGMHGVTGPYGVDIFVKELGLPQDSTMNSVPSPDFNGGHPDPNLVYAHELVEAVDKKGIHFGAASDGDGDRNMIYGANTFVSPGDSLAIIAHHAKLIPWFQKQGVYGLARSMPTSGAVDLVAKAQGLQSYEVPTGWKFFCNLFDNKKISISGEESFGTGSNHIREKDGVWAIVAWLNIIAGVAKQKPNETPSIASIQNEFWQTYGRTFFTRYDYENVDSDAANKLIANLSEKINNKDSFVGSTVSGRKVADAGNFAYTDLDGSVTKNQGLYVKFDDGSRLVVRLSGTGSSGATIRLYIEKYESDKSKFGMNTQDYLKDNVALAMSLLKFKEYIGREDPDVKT

One may read the IC50 as the concentration needed to halve the response being measured. On to `N#Cc1cccc(-n2sccc2=O)c1` [ISFP14, 3-(3-oxoisothiazol-2(3H)-yl)benzonitrile], for which the values for the IC50 at AfPGMC353∗, on AfPGM and at HsPGM (setting [1]) were 9.5 µM, 5.7 µM and more than 100 µM, respectively.
Regarding `O=c1ccsn1CCc1ccccc1` [ISFP22, 2-phenethylisothiazol-3(2H)-one], at AfPGM, the “IC50 AfPGM” value is recorded as “no inhibition”.
On to `CCOC(=O)c1cc2cc(-n3sccc3=O)ccc2o1` [ISFP15, ethyl 5-(3-oxoisothiazol-2(3H)-yl)benzofuran-2-carboxylate], for which the half-maximal inhibitory concentration (IC50) against AfPGMC353∗ was 15 µM; at AfPGM, 2.3 µM; at HsPGM (setting [1]) it was more than 100 µM.
For `CC(C)(C)OC(=O)c1ccc(-n2sccc2=O)cc1` [ISFP8, tert-butyl 4-(3-oxoisothiazol-2(3H)-yl)benzoate], the IC50 is 6.7 µM at AfPGMC353∗, 3.1 µM against AfPGM and more than 100 µM at HsPGM (setting [1]).
On to `O=C(OCc1ccccc1)c1ccc(-n2sccc2=O)cc1` [ISFP10, benzyl 4-(3-oxoisothiazol-2(3H)-yl)benzoate], for which the IC50 was 4 µM and 3.6 µM against AfPGMC353∗; 2 µM on AfPGM; more than 100 µM at HsPGM (setting [1]); 6 µM on HsPGM (enzyme preincubated with compound for 15 min (Fig. S11E, F), read-out: IC50 HsPGM after preincubation). The “Shift in IC50 against AfPGM over preincubation” value at AfPGM (15-min preincubation (Fig. S11C, D)) is listed as “no shift”.
On to `CCOCCn1sccc1=O` [ISFP25, 2-(2-ethoxyethyl)isothiazol-3(2H)-one], for which the “IC50 AfPGM” value at AfPGM is reported as “no inhibition”.
In the case of `O=c1ccsn1-c1c(F)cccc1F` [ISFP20, 2-(2,6-difluorophenyl)isothiazol-3(2H)-one], the IC50 on AfPGMC353∗ came out at 14 µM; against AfPGM, 19 µM; on HsPGM (setting [1]), 86 µM.
On the same counts, the results for `O=c1ccsn1-c1ccccc1F` [ISFP16, 2-(2-fluorophenyl)isothiazol-3(2H)-one] are 23 µM, 21 µM and more than 400 µM.
Consider `Cc1csn(-c2cccc(Cl)c2)c1=O` [ISFP28, 2-(3-chlorophenyl)-4-methylisothiazol-3(2H)-one], for which the “IC50 AfPGM” value at AfPGM was “no inhibition”.
For `CC(C)OC(=O)c1ccc(-n2sccc2=O)cc1` [ISFP11, isopropyl 4-(3-oxoisothiazol-2(3H)-yl)benzoate], the values for the IC50 against AfPGMC353∗, on AfPGM and at HsPGM (setting [1]) were 6 µM, 3.1 µM and more than 100 µM, respectively.
On the same counts, the results for `O=c1ccsn1-c1cccc([N+](=O)[O-])c1` [ISFP12, 2-(3-nitrophenyl)isothiazol-3(2H)-one] are 9.5 µM, 5.7 µM and more than 100 µM.
As for `CCOC(=O)Cn1sccc1=O` [ISFP23, ethyl 2-(3-oxoisothiazol-2(3H)-yl)acetate], the “IC50 AfPGM” value on AfPGM is on record as “no inhibition”.
Regarding `O=C(c1ccc(-n2sccc2=O)cc1)N1CCOCC1` [ISFP18, 2-(4-(morpholine-4-carbonyl)phenyl)isothiazol-3(2H)-one], the IC50 against AfPGMC353∗ was 23 µM; on AfPGM it was 19 µM; at HsPGM (setting [1]) it was more than 100 µM.
On the same counts, the results for `O=c1ccsn1-c1cccc(Cl)c1` [ISFP13, 2-(3-chlorophenyl)isothiazol-3(2H)-one] are 12.2 µM, 5.8 µM and 100 µM.
For the compound `Cc1cc(=O)n(-c2cccc(Cl)c2)s1` [ISFP30, 2-(3-chlorophenyl)-5-methylisothiazol-3(2H)-one], the “IC50 AfPGMC353” value against AfPGMC353∗ (AfPGMC353∗ (all other cysteines mutated to serine) 5 nM) is reported as “no inhibition”. In addition, the IC50 at AfPGM came out at 5.2 µM. Moreover, on HsPGM (HsPGM 5 nM, no preincubation, > values: highest concentration at which the compound can solubilize), the “IC50 HsPGM” value is on record as “no inhibition”.
For `O=c1ccsn1-c1cccc2ccccc12` [ISFP17, 2-(naphthalen-1-yl)isothiazol-3(2H)-one], the IC50 on AfPGMC353∗ is 16 µM; at AfPGM, 3.3 µM; at HsPGM (setting [1]), more than 100 µM.
On the same counts, the results for `O=c1ccsn1-c1cccc(CO)c1` [ISFP21, 2-(3-(hydroxymethyl)phenyl)isothiazol-3(2H)-one] are 25 µM, 23 µM and more than 400 µM.
`CCOC(=O)CCn1sccc1=O` [ISFP24, ethyl 3-(3-oxoisothiazol-2(3H)-yl)propanoate]: at AfPGM, the “IC50 AfPGM” value is “no inhibition”.
Take `CC(=O)OCc1cccc(-n2sccc2=O)c1` [ISFP19, 3-(3-oxoisothiazol-2(3H)-yl)benzyl acetate]: the IC50 against AfPGMC353∗ was 115 µM; against AfPGM, 36 µM; on HsPGM (setting [1]), more than 400 µM.
Regarding `O=c1ccsn1-c1cc(Cl)cc(Cl)c1F` [ISFP5, 2-(3,5-dichloro-2-fluorophenyl)isothiazol-3(2H)-one], the IC50 was 8 µM and 7.8 µM at AfPGMC353∗; 1 µM and 0.8 µM on AfPGM; 10 ± 1 µM on HsPGM (setting [1]).
With `O=c1ccsn1Cc1ccccc1` [ISFP26, 2-benzylisothiazol-3(2H)-one], at AfPGM, the “IC50 AfPGM” value is on record as “no inhibition”.
Same read-out and setting: the result for `O=c1cc(-c2ccccc2)sn1-c1cccc(Cl)c1` [ISFP27, 2-(3-chlorophenyl)-5-phenylisothiazol-3(2H)-one] reads “no inhibition”.

These data come from paper PMC9168620, “Genetic validation of Aspergillus fumigatus phosphoglucomutase as a viable therapeutic target in invasive aspergillosis” (The Journal of Biological Chemistry, 2022).
